Earlier results in patent US10342235B2, “Formulations comprising phosphite” (Ceradis B.V., priority 2015, dated 2019).

System: rodents
Conditions: oral administration, dermal administration, inhalatory exposure

potassium phosphite
Toxicity in rodents: low toxicity
